Reference: patent US20240246960A1 (adMare Therapeutics Society, priority 2021, published 2024)
Where two headings read alike, the source gives them in different places.

Tests used:
FaDu cell line = test: Prodrug activation in hypoxic stirred tumour cell suspensions; type: in vitro ADME; conditions: 10 μM, 4 hours
Protocol: Prodrug compounds were assayed to determine their stability and rate of activation in stirred cell suspensions under 0.2 vs 5% oxygen. Compounds were diluted 1:1000 from DMSO stocks to 10 μM final concentration in tumour cell suspensions (1% by cell volume) in MEM media containing 10% FBS, 10 mM glucose & 3.7 g/L sodium bicarbonate. Cell lines assayed included A253, A549, Detroit562, FaDu, HCT116, HEP G2, HT29, SCC25, SCC9, SiHa & TC32. Compounds and cells were then incubated for 4 hours under constant mixing at 37° C. under 5% CO2 and either 0.2 or 5% O2. Following the incubation period cellular activation of the compounds was assayed via MeOH extraction and HPLC quantification.

[1] = tested on: pH2AX induction in HCT116 ATM−/− multicellular tumour spheroids; test: Prodrug radiation sensitization in multicellular tumour spheroids (pH2AX induction following radiation); type: cell-based
Protocol: Prodrug compounds were assayed to determine their potency in 3D multicellular spheroids in media maintained under 20% vs […]. Multicellular tumour spheroids were grown to approximately 0.5 mm in diameter and irradiated with 20 Gy in combination with inhibitor test compounds to determine their potency using HCT116 and FaDu cell lines. Experiments were carried out in 96 well plates containing 0.7 mls of MEM media containing 10% FBS and 10 mM glucose under […] at 37° C. Following dilution of compounds 1:1000 from DMSO stocks, compounds were serially diluted from 10 μM down to 3.5 nM and 5-10 spheroids added. 96 well plates were constantly stirred to avoid spheroids settling during the course of the experiment. Endpoints were pDNA-PK (ser 2056) or pH2AX (ser 139) status in spheroid cryosections taken 1 or 2 hours following radiation and fixed immediately in formalin. Using tumour cell lines deficient in ATM improved the assay signal to noise and gH2AX readout. Using this assay prodrug activity could be compared in the more oxygenated outer spheroid layers versus less oxygenated hypoxic central cell layers.

[2] = biological target: T1, pDNA-PK ser2056 induction in HCT116 spheroids (Homo sapiens, UniProt P78527); test: Multicellular tumour spheroid + radiation, pDNA-PK inhibition, HCT116; type: cell-based; conditions: 20 Gy
T1 construct: endogenous in cells; host or cells: HCT116 multicellular tumour spheroids
Method in brief: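 HCT116 spheroids (~0.5 mm) in MEM/10% FBS/10 mM glucose, 20% O2, 37 °C, pre-incubated 1 h with compound (10 or 5 μM down to 3.5 nM), irradiated 20 Gy, incubated 2 h more. Cryosections immunostained for pDNA-PK ser2056; EC50 (μM) for 50% reduction of radiation-induced pDNA-PK.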

[3] = biological target: T2, pDNA-PK ser2056 induction in FaDU spheroids (Homo sapiens, UniProt P78527); test: Multicellular tumour spheroid + radiation, pDNA-PK inhibition, FaDU; type: cell-based; conditions: 20 Gy
T2 construct: host or cells: FaDu
Protocol: (§1) Multicellular tumour spheroids determination of compound inhibition of pDNA-PK induction following radiation. Tumour spheroids were grown to approximately 0.5 mm in diameter and irradiated with 20 Gy in combination with inhibitor test compounds to determine their potency. Inhibitor concentration for 50% reduction in pDNA-PK induction (IC50) was determined via immunohistochemical staining in spheroid cryosections taken 2 hours following radiation. For cell survival endpoint 8 Gy radiation was used and 3 hours following radiation spheroids were dissociated, counted and plated for colony forming endpoint.
Spheroid+radiation pDNA-PK. Radiation: 20 Gy. Drug: serial dilution 5 or 10 μM down to 3.5 nM (11 wells). Spheroids: 3-6 spheroids per well (300-500 μm diameter). 20% O2 and 5% CO2. 96 well plate format. Endpoint: fluorescent immunostain pDNA-PK ser2056 and image on microscope. Analysis: determine EC50 concentrations that decreases pDNA-PK induction […] after irradiation.
(§2) Multicellular tumour spheroids were used to determine potency of test compounds in a 3D tissue environment using inhibition of pDNA-PK induction following radiation or cell survival as the endpoint. For the pDNA-PK endpoint HCT116 or FaDU tumour spheroids were grown to approximately 0.5 mm in diameter and irradiated with 20 Gy in combination with inhibitor test compounds to determine their potency. Experiments were carried out in 96 well plates containing 0.7 mls of MEM media containing 10% FBS and 10 mM glucose under 20% O2 & 5% CO2 at 37° C. Following dilution of compounds 1:1000 from DMSO stocks, compounds were serially diluted from 10 μM down to 3.5 nM and 5-10 spheroids added. 96 well plates were constantly stirred to avoid spheroids settling during the course of the experiment. The inhibitor concentration for 50% reduction in pDNA-PK induction (EC50) was determined via immunohistochemical staining in spheroid cryosections taken 2 hours following radiation using anti-pDNA-PK (ser 2056) and fixed immediately in formalin following sectioning. For cell survival endpoint 8 Gy radiation was used and, 3 hours following radiation, spheroids were dissociated, counted and plated for colony forming endpoint. Data presented in the table compound potency as EC50 [μM].

HCT116 spheroids = test: Spheroid + radiation colony forming cell survival assay (SF), HCT116; type: cell-based; conditions: Homo sapiens, HCT-116, 8 Gy
Protocol: as §1
Spheroid+radiation colony forming cell survival assay (SF). Radiation 8 Gy. Drug: serial dilution 5 μM down to 10 nM (12 wells×2 repeat). Spheroids: 5-10 spheroids per well ([…]). HCT116. 5% O2 and 5% CO2. 96 well pate format for assay. Protocol: pre incubate 1 hour with drug, irradiate 8 Gy, post incubate 3 hrs with drug, dissociate spheroids and count cells and plate for colony forming assay. Endpoint: wait 4-7 days and count colonies. Analysis: determine EC50 concentration that increase cell kill by 50% over radiation alone.
as §2

[4] = 20 Gy, 5% O2, inner layers, read-out: Prodrug 5% O2 Inner layers EC50
[5] = 20 Gy, 5% O2, outer layers, read-out: Prodrug 5% O2 Outer layers EC50
[6] = 20 Gy, 20% O2, outer layers, read-out: Prodrug 20% O2 Outer layers EC50
[7] = value of the effector of the listed prodrug, 5% O2, inner layers, read-out: Effector 5% O2 Inner layers EC50

| SMILES | Fraction of prodrug converted to active form, Hypoxic 0.2% O2 (FaDu cell line) | Fraction of prodrug converted to active form, Oxic 5% O2 (FaDu cell line) | EC50 [1, 4] [nM] | EC50 [1, 5] [nM] | EC50 [1, 6] [nM] | EC50 [1, 7] [nM] | EC50 ([2]; Example 7, spheroid, cell line HCT115 [sic], 20% O2, read-out: EC50 (pDNA-PK inhibition, immunohistochemical endpoint)) [nM] | EC50 ([2]; Example 8, spheroid, read-out: Cell line: HCT116 Immunohistochemical endpoint pDNA-PK inhibition EC50) [nM] | EC50 ([2]; Example 9 Study 2, 20% O2, read-out: Spheroid Cell line: HCT116 Immunohistochemical endpoint pDNA-PK inhibition EC50) [nM] | EC50 ([3]; Example 8, spheroid, read-out: Cell line: FaDU Immunohistochemical endpoint pDNA-PK inhibition EC50) [nM] | EC50 ([3]; Example 9 Study 2, 20% O2, read-out: Spheroid Cell line: FaDU Immunohistochemical endpoint pDNA-PK inhibition EC50) [nM] | EC50 (HCT116 spheroids; Example 8, spheroid, read-out: Cell line: HCT116 Colony forming endpoint Surviving Fraction EC50) [nM] | EC50 (HCT116 spheroids; Example 9 Study 2, read-out: Spheroid Cell line: HCT116 Colony forming endpoint Surviving Fraction EC50) [nM] | EC50 ([1]; Homo sapiens, HCT-116, 20 Gy, 5% O2, inner layers, read-out: Prodrug 5% O2 Inner layers EC50) [nM] | EC50 ([1]; Homo sapiens, HCT-116, 20 Gy, 5% O2, outer layers, read-out: Prodrug 5% O2 Outer layers EC50) [nM] | EC50 ([1]; Homo sapiens, HCT-116, 20 Gy, 20% O2, outer layers, read-out: Prodrug 20% O2 Outer layers EC50) [nM] |
| --- | --- | --- | --- | --- | --- | --- | --- | --- | --- | --- | --- | --- | --- | --- | --- | --- |
| Cn1c(Cn2cnc(-c3cnc4cc(N5CCOCC5)nc(OC5CCC(Nc6ncccn6)CC5)c4c3)n2)cnc1[N+](=O)[O-] (stereo not drawn) [LFA138] | D (D is 0 to 0.02) | D (D is 0 to 0.02) | 1000 to 10000 | 1000 to 10000 | 1000 to 10000 | 10 to 500 | – | – | – | – | – | – | – | – | – | – |
| Brc1cnc2cc(N3CCOCC3)nc(O[C@H]3CC[C@@H](n4ccnc4)CC3)c2c1 [Compound 10, 4-(5-(((1s,4s)-4-(1H-imidazol-1-yl)cyclohexyl)oxy)-3-bromo-1,6-naphthyridin-7-yl)morpholine] | – | – | – | – | – | – | 1000 to 10000 | 1000 to 10000 | 1000 to 10000 | 500 to 1000 | 500 to 1000 | 500 to 1000 | 500 to 1000 | – | – | – |
| Cn1c(Cn2ncnc2-c2cnc3cc(N4CCOCC4)nc(O[C@H]4CC[C@@H](Nc5ncccn5)CC4)c3c2)cnc1[N+](=O)[O-] [LFA139] | B (B is 0.05 to 0.15) | D (D is 0 to 0.02) | 500 to 1000 | 500 to 1000 | 1000 to 10000 | 10 to 500 | – | – | – | – | – | – | – | – | – | – |
| CC(c1cnc([N+](=O)[O-])n1C)N(c1cnc2cc(N3CCOCC3)nc(OC3CCC(Nc4ccn5nccc5n4)CC3)c2c1)S(C)(=O)=O (stereo not drawn) [LFA036, N-[1-(3-Methyl-2-nitro-imidazol-4-yl)ethyl]-N-[7-morpholino-5-[4-(pyrazolo[1,5-a]pyrimidin-5-ylamino)cyclohexoxy]-1,6-naphthyridin-3-yl]methanesulfonamide] | A (A is 0.15 to 1) | D (D is 0 to 0.02) | – | – | – | – | – | – | – | – | – | – | – | 10 to 500 | 500 to 1000 | 10000 to 100000 |
